Data set [1] can be described thus: In vitro release of risperidone from devices loaded with various risperidone addition salts (Example 5). Type of data set: physicochemical. The conditions noted are these: for Percent Risperidone Released at Day 15: cumulative percent of total risperidone released from device, two-fold molar excess of acid, PBS, 37° C., 15 days; for cumulative in vitro release of risperidone after 15 days (percent of total loaded drug): device in 100 mL PBS at 37° C., risperidone salt with two-fold molar excess of acid.

The conditions of data set [2]: cited from earlier work; for Solubility: of the organic acid.

One may read the Solubility as the concentration that dissolves in the medium under given conditions.

≈ marks a conversion by molar mass, not a printed value.

In the case of `O=c1[nH]c(=O)c2[nH]c(=O)[nH]c2[nH]1` [Uric acid], in data set [1], the “Percent Risperidone Released at Day 15” value was found to be 16% and the “cumulative in vitro release of risperidone after 15 days (percent of total loaded drug)” value (“cumulative … (percent of total loaded drug)” below) is listed as 16%.

`O=C(O)CNC(=O)c1ccccc1` [Hippuric acid]: in data set [1], the “Percent Risperidone Released at Day 15” value worked out at 94% and the “cumulative … (percent of total loaded drug)” value amounted to 94%.

Take `O=C(O)CCc1ccc(O)cc1` [Hydroxyphenylpropionic acid, 3-(4-hydroxyphenyl) propionic acid]: in data set [1], the “Percent Risperidone Released at Day 15” value is listed as 92% and the “cumulative … (percent of total loaded drug)” value turned out to be 92%.

As for `O=C(O)c1ccc(C(=O)O)cc1` [Terephthalic acid], in data set [1], the “Percent Risperidone Released at Day 15” value turned out to be 2.6% and the “cumulative … (percent of total loaded drug)” value stood at 2.6%.

In the case of `O=C(O)C(O)c1ccccc1` (racemic) [rac-Mandelic], the Solubility in data set [2] is listed as 158.7 g/L (≈ 1040 mM).

Turning to `Nc1ccc(C(=O)O)cc1` [PABA, 4-aminobenzoic acid], in data set [1], the “Percent Risperidone Released at Day 15” value is on record as 45%.

`COc1cc(C(=O)O)ccc1O` [Vinallic acid, vanillic acid]: the “Percent Risperidone Released at Day 15” value in data set [1] is listed as 55%.

Take `O=C(O)CCCCCCCCC(=O)O` [Sebacic acid, sebacic acid]: in data set [1], the “Percent Risperidone Released at Day 15” value came to 55%.

In the case of `Cc1nc2n(c(=O)c1CCN1CCC(c3noc4cc(F)ccc34)CC1)CCCC2` [Risperidone, risperidone, reference compound], in data set [2] (neutral free base, 20-25° C.), the insolubility in water was > 10000 volumes of water per volume of drug.

For the compound `O=C(O)/C=C/c1ccc(O)cc1` [p-Coumaric, p-coumaric acid], the Solubility in data set [2] is 1 to 10 g/L.
